Test results published in patent US8299093B2, “Small molecule inhibitors of retroviral assembly and maturation” (New York Blood Center, Inc., priority 2008, dated 2012).

Experiments:
HIV-1 [1] = assay: Inhibition of HIV-1 infectivity (p24 ELISA) in MT-2 cells, laboratory-adapted HIV-1 strains; assay type: cell-based; conditions: Human immunodeficiency virus 1, MT2, 96 h, read-out: IC50 (concentration that provides 50% inhibition of HIV-1 p24), Table 1, formula I; MT-2 cells, p24 ELISA day 4
Protocol: AZT was used as a positive control in the infectivity assays. In brief, 1×10^4 MT-2 cells (lymphocytes) were infected with HIV-1 at 100 TCID50 (50% tissue culture infective dose, 0.01 MOI [multiplicity of infection]) in 200 μL RPMI 1640 medium containing 10% FBS in the presence or absence of small molecules at graded concentrations overnight. The culture supernatants were then removed and fresh media containing freshly prepared test compounds were added. On the fourth day post-infection, 100 μL of culture supernatants were collected from each well, mixed with equal volume of 5% TRITON X-100® and tested for p24 antigen by ELISA®.

[2] = XTT cytotoxicity assay in MT-2 cells; assay type: cell-based; conditions: human, Table 1, formula I, cell type not given, read-out: CC50 (concentration that causes 50% cytotoxicity)
Protocol: Briefly, for MT-2 cells, 100 μL of small molecule at graded concentrations was added to an equal volume of cells (5×10^4 cells/ml) in 96-well plates followed by incubation at 37° C. for 4 days, which ran parallel to the neutralization assay in MT-2 (except medium was added instead of virus). In the case of PBMC, 2.5×10^5 cells/mL were used and the cytotoxicity was measured after 7 days. After addition of XTT (PolySciences, Inc.), the soluble intracellular formazan was quantitated calorimetrically at 450 nm 4 hours later with a reference at 620 nm. The CC50 values were calculated.

HIV-1 [3] = conditions: cited from earlier work

SMILES | IC50 (HIV-1 [1]) [µM] | CC50 [2] [µM] | Antiviral potency in cell culture (HIV-1 [3])
Cc1cc(C)c2[nH]c(=O)c(CN(Cc3ccco3)C(=O)c3ccncc3)cc2c1 [NYAD-S107] | > 10 | > 10 | 
CCOc1ccc2[nH]c(=O)c(CN(Cc3ccco3)C(=O)c3ccc(C(C)(C)C)cc3)cc2c1 [NYAD-S108] | > 10 | > 10 | 
CCOc1ccc2[nH]c(=O)c(CN(Cc3ccco3)C(=O)c3cc(OC)c(OC)c(OC)c3)cc2c1 [NYAD-S109] | > 10 | > 10 | 
CCc1ccc2[nH]c(=O)c(CN(Cc3ccco3)C(=O)c3ccc(C(C)(C)C)cc3)cc2c1 [NYAD-S110] | > 10 | > 10 | 
Cc1cc(C)c2cc(CN(Cc3ccco3)C(=O)c3ccccc3)c(=O)[nH]c2c1 [NYAD-S111] | > 10 | > 10 | 
Cc1cccc2cc(CN(Cc3ccco3)C(=O)c3cccc(F)c3)c(=O)[nH]c12 [NYAD-S118] | < 10 | > 10 | 
Cc1ccc(CN(Cc2cc3cc(C)ccc3[nH]c2=O)C(=O)c2ccco2)cc1 [NYAD-S121] | < 10 | > 10 | 
Cc1ccc(C(=O)N(Cc2ccco2)Cc2cc3cccc(C)c3[nH]c2=O)cc1 [NYAD-S122] | < 10 | < 10 | 
C=C(C)[C@@H]1CC[C@]2(C(=O)O)CC[C@]3(C)[C@H](CC[C@@H]4[C@@]5(C)CC[C@H](OC(=O)CC(C)(C)C(=O)O)C(C)(C)[C@@H]5CC[C@]43C)[C@@H]12 [PA-457] |  |  | low nM
